Source: patent US20110144303A1, “Biologically Active Peptidomimetic Macrocycles” (AILERON Therapeutics, Inc., priority 2008, published 2011)
Read-outs that look alike come from different tables or passages of the source. Positions of bridges follow the written chain, without caps; N, C: chain ends. Non-standard residues stand in square brackets, D forms with d. Residues, ends and D or L forms follow the SMILES beside them. S5 = C=CCCC[C@](C)(N)C(=O)O; Nle = CCCC[C@H](N)C(=O)O

Tests used:
GST-Bcl-2 [1] = test: Kd
Method: Table printed on a drawing sheet, Figure 5
The patent's description of the figure: FIG. 5 depicts binding properties to GST-Bcl-2 of SP-4 and SP-54 peptidomimetic macrocycles.
First copying reader's note: Kd values belong to the plot beside the table, titled 'Saturation Binding Curves vs. 2 µM Receptor, 1x PBS + 5 mM CHAPS, 2.5% DMSO', with GST-Bcl-2 as the receptor.
Where the first naming reader finds the target: description_of_the_figure: FIG. 5 depicts binding properties to GST-Bcl-2 of SP-4 and SP-54 peptidomimetic macrocycles.

Bcl-xL = target: T1, Bcl-xL (Homo sapiens, UniProt Q07817); test: Protein-ligand binding experiment for Bcl-xL (SEC-LC-MS affinity selection); conditions: 1 μM SP-4 and 5 μM Bcl-xL in PBS, 2.5% DMSO, 60 min at room temperature
T1 construct: GST
Method: Protein-ligand binding experiments for Bcl-xL. Simple protein-ligand binding experiments were conducted using the following representative procedure outlined for a simple system-wide control experiment using 1 μM SP-4 and 5 μM Bcl-xL. A 1 μL DMSO aliquot of a 40 μM stock solution of SP-4 is dissolved in 19 μL of PBS (Phosphate-buffered saline: 50 mM, pH 7.5 Phosphate buffer containing 150 mM NaCl). The resulting solution is mixed by repeated pipetting and clarified by centrifugation at 10 000 g for 10 min. To a 4 μL aliquot of the resulting supernatant is added 4 μL of 10 μM BCL-xL in PBS. Each 8.0 μL experimental sample thus contains 40 pmol (1.5 μg) of protein at 5.0 μM concentration in PBS plus 1 μM SP-4 and 2.5% DMSO. Duplicate samples thus prepared for each concentration point are incubated for 60 min at room temperature, and then chilled to 4° C. prior to size-exclusion chromatography-LC-MS analysis of 5.0 μL injections. Samples containing a target protein, protein-ligand complexes, and unbound compounds are injected onto an SEC column, where the complexes are separated from non-binding component by a rapid SEC step. The SEC column eluate is monitored using UV detectors to confirm that the early-eluting protein fraction, which elutes in the void volume of the SEC column, is well resolved from unbound components that are retained on the column. […]

[2] = Pharmacokinetics of SP-4 and SP-54 in Rats following IV dose
Excerpt: Table printed on a drawing sheet, Figure 19
Title: Pharmacokinetics of SP-4 and SP-54 in Rats following IV dose
The patent's description of the figure: FIG. 19 illustrates the pharmacokinetic properties of SP-4 and SP-54 peptidomimetic macrocycles in rats.
First reader's note: Pharmacokinetic parameters in rats after IV dosing; the table is printed under a concentration-time plot that is not copied.

GST-Mcl-1 = test: Kd
Method: Table printed on a drawing sheet, Figure 4
The patent's description of the figure: FIG. 4 depicts binding properties to GST-Mcl-1 of SP-4 and SP-54 peptidomimetic macrocycles.
First copying reader's note: Kd values belong to the adjacent saturation binding plot (stapled peptides + GST-Mcl-1, 2 µM receptor, 1x PBS + 5 mM CHAPS, 2.5% DMSO).
Where the first naming reader finds the target: description_of_the_figure: FIG. 4 depicts binding properties to GST-Mcl-1 of SP-4 and SP-54 peptidomimetic macrocycles.

[3] = Pharmacokinetics of SP-1 and SP-35 in Rat following IV dose
Excerpt: Table printed on a drawing sheet, Figure 18
Title: Pharmacokinetics of SP-1 and SP-35 in Rat following IV dose
The patent's description of the figure: FIG. 18 illustrates the pharmacokinetic properties of SP-1 and SP-35 peptidomimetic macrocycles in rats.
First reader's note: The title stands over the plot above the table and applies to both: rat, IV dose.

GST-Bcl-XL = target: T2, GST-Bcl-XL (Homo sapiens, UniProt Q07817); test: Kd
T2 construct: GST
Method: Table printed on a drawing sheet, Figure 7
The patent's description of the figure: FIG. 7 depicts binding properties to GST-Bcl-XL of SP-1 and SP-35 peptidomimetic macrocycles.
First copying reader's note: The table stands beside a saturation binding plot (2 µM receptor, 1x PBS + 5 mM CHAPS, 2.5% DMSO) whose legend names GST-Bcl-xL as the receptor for both peptides.
Where the first naming reader finds the target: description_of_the_figure: FIG. 7 depicts binding properties to GST-Bcl-XL of SP-1 and SP-35 peptidomimetic macrocycles.

GST-Bcl-2 [4] = test: Kd; remark: listed apart in the source
Method: Table printed on a drawing sheet, Figure 8
The patent's description of the figure: FIG. 8 depicts binding properties to GST-Bcl-2 of SP-1 and SP-35 peptidomimetic macrocycles.
First copying reader's note: The Kd values belong to the plot beside the table, titled 'Saturation Binding Curves vs. 2 µM Receptor, 1x PBS + 5 mM CHAPS, 2.5% DMSO', whose legend names the receptor as GST-Bcl-2.
Where the first naming reader finds the target: description_of_the_figure: FIG. 8 depicts binding properties to GST-Bcl-2 of SP-1 and SP-35 peptidomimetic macrocycles.

[5] = Pepsin Stability: (E/S 1:50)
Excerpt: Table printed on a drawing sheet, Figure 12
Title: Pepsin Stability: (E/S 1:50)
The patent's description of the figure: FIG. 12 describes the comparative pepsin stability of SP-1 and SP-35 peptidomimetic macrocycles of the invention.
First reader's note: The title is printed over the plot below the table; the rate constants and half-lives describe degradation by pepsin, and the time points used are on the plot's Time (min) axis.

T1 sequence (Q07817 whole entry, species assumed): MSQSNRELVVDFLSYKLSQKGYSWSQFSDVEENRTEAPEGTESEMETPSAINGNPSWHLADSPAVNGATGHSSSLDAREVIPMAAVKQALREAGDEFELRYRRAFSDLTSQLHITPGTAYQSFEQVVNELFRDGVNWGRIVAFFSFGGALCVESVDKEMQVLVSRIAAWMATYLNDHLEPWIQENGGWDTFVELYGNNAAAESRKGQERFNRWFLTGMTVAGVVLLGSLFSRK
T2 sequence (Q07817 whole entry, looked up): as the sequence (Q07817 whole entry, species assumed) above

Structure (SMILES)	Kd (GST-Bcl-2 [1])	detection of the protein-ligand complex by ESI-MS after size-exclusion chromatography (Bcl-xL)	AUC,inf [2]	Cl [2]	Vss [2]	Vz [2]	Cmax ([2]; rat, in vivo, iv)	MRT ([2]; rat, in vivo, iv)	Kd (GST-Mcl-1)	AUC,inf [3]	Vss [3]	Vz [3]	Cmax ([3]; rat, in vivo, iv)	MRT ([3]; rat, in vivo, iv)	half-life ([3]; rat, in vivo, iv)	Kd (GST-Bcl-XL)	Kd (GST-Bcl-2 [4])	K1 min^-1 [5]	half-life^1 [5]
CC[C@H](C)[C@H](NC(C)=O)C(=O)N[C@@H](Cc1c[nH]c2ccccc12)C(=O)N[C@H](C(=O)N[C@@H](C)C(=O)N[C@@H](CCC(N)=O)C(=O)N[C@@H](CCC(=O)O)C(=O)N[C@@H](CC(C)C)C(=O)N[C@@H](CCCNC(=N)N)C(=O)N[C@@]1(C)CCCC=CCCC[C@@](C)(C(=O)N[C@@H](Cc2ccccc2)C(=O)N[C@@H](CC(N)=O)C(=O)N[C@@H](C)C(=O)N[C@@H](Cc2ccc(O)cc2)C(=O)N[C@@H](Cc2ccc(O)cc2)C(=O)N[C@@H](C)C(=O)N[C@@H](CCCNC(=N)N)C(=O)N[C@@H](CCCNC(=N)N)C(N)=O)NC(=O)[C@H](CC(=O)O)NC(=O)CNC(=O)[C@H]([C@@H](C)CC)NC1=O)[C@@H](C)CC [SP-4, Ac-IWIAQELR$IGD$FNAYYARR-NH2]	0.026 µM	detection of the protein-ligand complex	38000 ng·h/mL	1.37 mL/min/kg	0.263 L/kg	0.728 L/kg	18100 ng/mL	3.1 h	0.007 µM										
CCCC[C@H](NC(=O)[C@]1(C)CCCC=CCCC[C@](C)(NC(=O)[C@H](C)NC(=O)[C@H](CC(C)C)NC(=O)[C@H](Cc2c[nH]cn2)NC(=O)[C@H](CCCNC(=N)N)NC(=O)[C@H](C)NC(=O)[C@@H](NC(=O)[C@H](CC(N)=O)NC(=O)[C@H](CCCNC(=N)N)NC(=O)[C@@H](NC(=O)[C@@H](NC(=O)[C@H](CC(=O)O)NC(C)=O)[C@@H](C)CC)[C@@H](C)CC)[C@@H](C)CC)C(=O)N[C@@H](C(C)C)C(=O)NCC(=O)N[C@@H](CC(=O)O)C(=O)N1)C(=O)N[C@@H](CC(=O)O)C(=O)N[C@@H](CCCNC(=N)N)C(=O)N[C@@H](CO)C(=O)N[C@H](C(N)=O)[C@@H](C)CC [SP-1, Ac-DIIRNIARHLA$VGD$NleDRSI-NH2] (Ac-DIIRNIARHLA[S5]VGD[S5][Nle]DRSI-NH2; staple 12-16)										72000 ng·h/mL	0.098 L/kg	0.274 L/kg	37000 ng/mL	2.2 h	4.3 h	0.043 µM	1.6 µM	0.0084 min⁻¹	1.38 h
